Data: the NIST ThermoML archive (doi:10.1016/j.jct.2019.01.021)

Assay: molar heat capacity at constant pressure
Details: 101.33 kPa, Small (less than 1 g) adiabatic calorimetry

N.NS(=O)(=O)O [ammonium sulfamate]
Details | molar heat capacity at constant pressure [J/K/mol]
254.34 K, Crystal 2 | 145.58
254.54 K, Crystal 1 | 146.89
254.58 K, Crystal 1 | 148.65
255.05 K, Crystal 1 | 140.26
255.16 K, Crystal 1 | 140.01
255.17 K, Crystal 1 | 141.54
255.56 K, Crystal 1 | 139.82
255.74 K, Crystal 1 | 139.92
256 K, Crystal 1 | 139.89
256.07 K, Crystal 1 | 140.15
256.32 K, Crystal 1 | 140.33
256.58 K, Crystal 1 | 140.36
256.83 K, Crystal 1 | 140.15
256.9 K, Crystal 1 | 140.4
257.09 K, Crystal 1 | 140.26
257.48 K, Crystal 1 | 140.61
257.6 K, Crystal 1 | 140.56
257.65 K, Crystal 1 | 140.39
258.06 K, Crystal 1 | 140.66
258.1 K, Crystal 1 | 140.61
258.48 K, Crystal 1 | 140.51
258.61 K, Crystal 1 | 140.63
258.65 K, Crystal 1 | 140.92
259.12 K, Crystal 1 | 140.78
259.23 K, Crystal 1 | 140.91
259.3 K, Crystal 1 | 140.91
259.63 K, Crystal 1 | 141.01
259.81 K, Crystal 1 | 141.1
260 K, Crystal 1 | 141.26
260.12 K, Crystal 1 | 141.07
260.15 K, Crystal 1 | 141.06
260.39 K, Crystal 1 | 141.17
260.66 K, Crystal 1 | 141.25
260.95 K, Crystal 1 | 141.34
260.97 K, Crystal 1 | 141.54
261.17 K, Crystal 1 | 141.38
261.55 K, Crystal 1 | 141.5
261.68 K, Crystal 1 | 141.47
261.77 K, Crystal 1 | 141.54
262.13 K, Crystal 1 | 141.71
262.19 K, Crystal 1 | 141.78
262.61 K, Crystal 1 | 141.89
262.71 K, Crystal 1 | 141.89
262.73 K, Crystal 1 | 141.96
263.3 K, Crystal 1 | 141.95
263.44 K, Crystal 1 | 142.09
264.27 K, Crystal 1 | 142.38
265.1 K, Crystal 1 | 142.55
265.93 K, Crystal 1 | 142.78
266.76 K, Crystal 1 | 143.13
267.59 K, Crystal 1 | 143.22
268.42 K, Crystal 1 | 143.39
269.25 K, Crystal 1 | 143.62
270 K, Crystal 1 | 144.09
270.08 K, Crystal 1 | 143.91
270.91 K, Crystal 1 | 144.17
271.74 K, Crystal 1 | 144.43
272.58 K, Crystal 1 | 144.63
273.41 K, Crystal 1 | 144.84
274.25 K, Crystal 1 | 145.06
275.08 K, Crystal 1 | 145.36
275.94 K, Crystal 1 | 145.56
276.77 K, Crystal 1 | 145.78
277.6 K, Crystal 1 | 145.99
278.44 K, Crystal 1 | 146.2
279.28 K, Crystal 1 | 146.42
280 K, Crystal 1 | 146.75
280.11 K, Crystal 1 | 146.67
280.95 K, Crystal 1 | 147.01
281.79 K, Crystal 1 | 147.27
282.63 K, Crystal 1 | 147.37
283.47 K, Crystal 1 | 147.57
284.3 K, Crystal 1 | 147.9
285.15 K, Crystal 1 | 148.03
285.99 K, Crystal 1 | 148.24
286.83 K, Crystal 1 | 148.69
287.67 K, Crystal 1 | 148.8
288.49 K, Crystal 1 | 148.98
289.33 K, Crystal 1 | 149.33
290 K, Crystal 1 | 149.41
290.17 K, Crystal 1 | 149.55
291.01 K, Crystal 1 | 149.81
291.85 K, Crystal 1 | 149.83
292.69 K, Crystal 1 | 150.13
293.53 K, Crystal 1 | 150.52
294.38 K, Crystal 1 | 150.46
295.22 K, Crystal 1 | 150.72
296.07 K, Crystal 1 | 150.87
296.92 K, Crystal 1 | 151.22
297.77 K, Crystal 1 | 151.31
298.15 K, Crystal 1 | 151.49
298.61 K, Crystal 1 | 151.62
299.46 K, Crystal 1 | 152.1
300 K, Crystal 1 | 151.99
300.74 K, Crystal 1 | 152.16
302.38 K, Crystal 1 | 152.51
304 K, Crystal 1 | 152.9
305.63 K, Crystal 1 | 153.27
307.25 K, Crystal 1 | 153.72
308.87 K, Crystal 1 | 154.08
310 K, Crystal 1 | 154.4
310.45 K, Crystal 1 | 154.47
312.03 K, Crystal 1 | 154.86
313.62 K, Crystal 1 | 155.15
315.2 K, Crystal 1 | 155.56
316.77 K, Crystal 1 | 155.95
318.35 K, Crystal 1 | 156.34
319.87 K, Crystal 1 | 156.72
320 K, Crystal 1 | 156.81
321.41 K, Crystal 1 | 157.11
322.95 K, Crystal 1 | 157.43
324.49 K, Crystal 1 | 157.89
325.96 K, Crystal 1 | 158.18
327.48 K, Crystal 1 | 158.02
328.97 K, Crystal 1 | 158.76
330 K, Crystal 1 | 159.14
330.46 K, Crystal 1 | 159.4
331.95 K, Crystal 1 | 159.74
333.42 K, Crystal 1 | 160.19
334.89 K, Crystal 1 | 160.55
